The values that follow come from ChEMBL document CHEMBL4420062, “Tfpi inhibitors and methods of use” (2013).

SMILES strings stand for the structures. Where a SMILES comes first, the peptide text is derived from it. [ ]: non-standard residue; d: D form. The star is where a group is joined. Tle = CC(C)(C)[C@H](N)C(=O)O; Hexanoyl = CCCCCC(=O)*; Aib = CC(C)(N)C(=O)O; Acm = CC(=O)NC*

This data set is described as follows: Stability in human plasma assessed as parent compound remaining after 24 hrs. The data set is classed as ADME, cell-free. The following applies: read-out: Stability.
As for `CCN1C(=O)CC(SC[C@H](NC(=O)[C@H](CC(C)C)NC(=O)[C@H](CCCCN)NC(=O)[C@H](C)NC(=O)C(C)(C)NC(=O)[C@H](CC(C)C)NC(=O)[C@H](CCCNC(=N)N)NC(=O)[C@H](CCC(=O)O)NC(=O)[C@H](Cc2ccccc2)NC(=O)[C@H](Cc2ccc(O)cc2)NC(=O)CNC(=O)[C@@H]2CCCN2C(=O)[C@@H](NC(=O)[C@H](Cc2cnc[nH]2)NC(=O)[C@@H](NC(=O)[C@H](CC(N)=O)NC(=O)[C@H]2CCCN2C(=O)[C@H](CCCCN)NC(=O)[C@H](CO)NC(=O)[C@H](CCC(N)=O)NC(=O)[C@H](Cc2ccccc2)NC(C)=O)C(C)C)C(C)C)C(N)=O)C1=O` (stereo not given in full), the remaining at 24 h was determined as 58%. With `CC(C)C[C@@H]1NC(=O)[C@H](CCCCN)NC(=O)[C@H](C)NC(=O)C(C)(C)NC(=O)[C@H](CC(C)C)NC(=O)[C@H](CCCNC(=N)N)NC(=O)[C@H](CCC(=O)O)NC(=O)[C@H](Cc2ccccc2)NC(=O)[C@H](Cc2ccc(O)cc2)NC(=O)CNC(=O)[C@H](CC(=O)O)NC(=O)[C@H](C(C)C)NC(=O)[C@H](Cc2cnc[nH]2)NC(=O)[C@H](C(C)C)NC(=O)[C@H](CC(N)=O)NC(=O)[C@H]2CCCN2C(=O)[C@H](CCCCN)NC(=O)[C@H](CO)NC(=O)[C@H](CCC(N)=O)NC(=O)[C@H](Cc2ccccc2)NC(=O)CCOCCOCCOCCOCCNC1=O`, the remaining at 24 h worked out at 55.9%.

For the molecule `CC(=O)N[C@@H](Cc1ccccc1)C(=O)N[C@@H](CCC(N)=O)C(=O)N[C@@H](CO)C(=O)N[C@@H](CCCCN)C(=O)N1CCC[C@@H]1C(=O)N[C@@H](CCCNC(=N)N)C(=O)N[C@H](C(=O)N[C@@H](Cc1cnc[nH]1)C(=O)N[C@H](C(=O)N[C@@H](CC(=O)O)C(=O)NCC(=O)N[C@@H](Cc1ccc(O)cc1)C(=O)N[C@@H](Cc1ccccc1)C(=O)N[C@@H](CCC(=O)O)C(=O)N[C@@H](CCCNC(=N)N)C(=O)N[C@@H](CC(C)C)C(=O)NC(C)(C)C(=O)N[C@@H](C)C(=O)N[C@@H](CCCCN)C(=O)N[C@@H](CC(C)C)C(N)=O)C(C)(C)C)C(C)C`, the remaining at 24 h was 66.1%. Regarding `CC(=O)N[C@@H](Cc1ccccc1)C(=O)N[C@@H](CCC(N)=O)C(=O)N[C@@H](CO)C(=O)N[C@@H](CCCCN)C(=O)N1CCC[C@@H]1C(=O)N[C@@H](CC(N)=O)C(=O)N[C@H](C(=O)N[C@@H](Cc1cnc[nH]1)C(=O)N[C@H](C(=O)N[C@@H](CC(=O)O)C(=O)N[C@@H]1CSSC[C@@H](C(=O)N[C@@H](CCCNC(=N)N)C(=O)N[C@@H](CC(C)C)C(=O)N[C@@H](C)C(=O)N[C@@H](C)C(=O)N[C@@H](CCCCN)C(=O)N[C@@H](CC(C)C)C(N)=O)NC(=O)[C@H](Cc2ccccc2)NC(=O)[C@H](Cc2ccc(O)cc2)NC1=O)C(C)(C)C)C(C)C`, the remaining at 24 h is 49.3%. For the molecule `CCCCCC(=O)N[C@@H](Cc1ccccc1)C(=O)N[C@@H](CCC(N)=O)C(=O)N[C@@H](CO)C(=O)N[C@@H](CCCCN)C(=O)N1CCC[C@@H]1C(=O)N[C@@H](CSCNC(C)=O)C(=O)N[C@H](C(=O)N[C@@H](Cc1cnc[nH]1)C(=O)N[C@H](C(=O)N[C@@H](CC(=O)O)C(=O)N[C@H](C)C(=O)N[C@@H](Cc1ccc(O)cc1)C(=O)N[C@@H](Cc1ccccc1)C(=O)N[C@@H](CCC(=O)O)C(=O)N[C@@H](CCCNC(=N)N)C(=O)N[C@@H](CC(C)C)C(=O)NC(C)(C)C(=O)N[C@@H](C)C(=O)N[C@@H](CCCCN)C(=O)N[C@@H](CC(C)C)C(N)=O)C(C)(C)C)C(C)C` (Hexanoyl-FQSK[dP]C(Acm)VH[Tle]D[dA]YFERL[Aib]AKL-NH2), the remaining at 24 h was 90.1 to 93%. The result for `CC(=O)N[C@@H](Cc1ccccc1)C(=O)N[C@@H](CCC(N)=O)C(=O)N[C@@H](CO)C(=O)N[C@@H](CCCCN)C(=O)N1CCC[C@@H]1C(=O)N[C@@H](CC(N)=O)C(=O)N[C@H](C(=O)N[C@@H](Cc1cnc[nH]1)C(=O)N[C@H](C(=O)N[C@@H](CC(=O)O)C(=O)N[C@H](C)C(=O)N[C@@H](Cc1ccc(O)cc1)C(=O)N[C@@H](Cc1ccccc1)C(=O)N[C@@H](CCC(=O)O)C(=O)N[C@@H](CCCNC(=N)N)C(=O)N[C@@H](CC(C)C)C(=O)NC(C)(C)C(=O)N[C@H]1CSSCCNC(=O)[C@H](CC(C)C)NC(=O)[C@H](CCCCN)NC1=O)C(C)(C)C)C(C)C` reads 16%; that for `CCN1C(=O)CC(SC[C@H](NC(=O)[C@H](CC(C)C)NC(=O)[C@H](CCCCN)NC(=O)[C@H](C)NC(=O)C(C)(C)NC(=O)[C@H](CC(C)C)NC(=O)[C@H](CCCNC(=N)N)NC(=O)[C@H](CCC(=O)O)NC(=O)[C@H](Cc2ccccc2)NC(=O)[C@H](Cc2ccc(O)cc2)NC(=O)[C@H](C)NC(=O)[C@H](CC(=O)O)NC(=O)[C@@H](NC(=O)[C@H](Cc2cnc[nH]2)NC(=O)[C@@H](NC(=O)[C@H](CC(N)=O)NC(=O)[C@H]2CCCN2C(=O)[C@H](CCCCN)NC(=O)[C@H](CO)NC(=O)[C@H](CCC(N)=O)NC(=O)[C@H](Cc2ccccc2)NC(C)=O)C(C)C)C(C)C)C(N)=O)C1=O` (stereo not given in full), 17.9%; that for `CCN1C(=O)CC(SC[C@H](NC(=O)[C@H](CC(C)C)NC(=O)[C@H](CCCCN)NC(=O)[C@H](C)NC(=O)C(C)(C)NC(=O)[C@H](CC(C)C)NC(=O)[C@H](CCCNC(=N)N)NC(=O)[C@H](CCC(=O)O)NC(=O)[C@H](Cc2ccccc2)NC(=O)[C@H](Cc2ccc(O)cc2)NC(=O)CNC(=O)[C@@H](NC(=O)[C@@H](NC(=O)[C@H](Cc2cnc[nH]2)NC(=O)[C@@H](NC(=O)[C@H](CC(N)=O)NC(=O)[C@H]2CCCN2C(=O)[C@H](CCCCN)NC(=O)[C@H](CO)NC(=O)[C@H](CCC(N)=O)NC(=O)[C@H](Cc2ccccc2)NC(C)=O)C(C)C)C(C)C)[C@@H](C)O)C(N)=O)C1=O` (stereo not given in full), 41.4%.

Regarding `CCN1C(=O)CC(SC[C@H](NC(=O)[C@H](CC(C)C)NC(=O)[C@H](CCCCN)NC(=O)[C@H](C)NC(=O)C(C)(C)NC(=O)[C@H](CC(C)C)NC(=O)[C@H](CCCNC(=N)N)NC(=O)[C@H](CCC(=O)O)NC(=O)[C@H](Cc2ccccc2)NC(=O)[C@H](Cc2ccc(O)cc2)NC(=O)CNC(=O)[C@@H](NC(=O)[C@@H](NC(=O)[C@H](Cc2cnc[nH]2)NC(=O)[C@@H](NC(=O)[C@H](CC(N)=O)NC(=O)[C@H]2CCCN2C(=O)[C@H](CCCCN)NC(=O)[C@H](CO)NC(=O)[C@H](CCC(N)=O)NC(=O)[C@H](Cc2ccccc2)NC(C)=O)C(C)C)C(C)(C)C)[C@@H](C)O)C(N)=O)C1=O` (stereo not given in full), the remaining at 24 h is 52.6%. The result for `CCN1C(=O)CC(SC[C@H](NC(=O)[C@H](CC(C)C)NC(=O)[C@H](CCCCN)NC(=O)[C@H](C)NC(=O)C(C)(C)NC(=O)[C@H](CC(C)C)NC(=O)[C@H](CCCNC(=N)N)NC(=O)[C@H](CCC(=O)O)NC(=O)[C@H](Cc2ccccc2)NC(=O)[C@H](Cc2ccc(O)cc2)NC(=O)CNC(=O)[C@H](CO)NC(=O)[C@@H](NC(=O)[C@H](Cc2cnc[nH]2)NC(=O)[C@@H](NC(=O)[C@H](CC(N)=O)NC(=O)[C@H]2CCCN2C(=O)[C@H](CCCCN)NC(=O)[C@H](CO)NC(=O)[C@H](CCC(N)=O)NC(=O)[C@H](Cc2ccccc2)NC(C)=O)C(C)C)C(C)C)C(N)=O)C1=O` (stereo not given in full) reads 33.4%; that for `CCN1C(=O)CC(SC[C@H](NC(=O)[C@H](CC(C)C)NC(=O)[C@H](CCCCN)NC(=O)[C@H](C)NC(=O)C(C)(C)NC(=O)[C@H](CC(C)C)NC(=O)[C@H](CCCNC(=N)N)NC(=O)[C@H](CCC(=O)O)NC(=O)[C@H](Cc2ccccc2)NC(=O)[C@H](Cc2ccc(O)cc2)NC(=O)CNC(=O)[C@H](CC(=O)O)NC(=O)[C@@H](NC(=O)[C@H](Cc2cnc[nH]2)NC(=O)[C@@H](NC(=O)[C@H](CC(N)=O)NC(=O)[C@H]2CCCN2C(=O)[C@H](CCCCN)NC(=O)[C@H](CO)NC(=O)[C@H](CCC(N)=O)NC(=O)[C@H](Cc2ccccc2)NC(C)=O)C(C)C)C(C)(C)C)C(N)=O)C1=O` (stereo not given in full), 52%. The result for `CCN1C(=O)CC(SC[C@H](NC(=O)[C@H](CC(C)C)NC(=O)[C@H](CCCCN)NC(=O)[C@H](C)NC(=O)C(C)(C)NC(=O)[C@H](CC(C)C)NC(=O)[C@H](CCCNC(=N)N)NC(=O)[C@H](CCC(=O)O)NC(=O)[C@H](Cc2ccccc2)NC(=O)[C@H](Cc2ccc(O)cc2)NC(=O)CNC(=O)[C@H](CC(=O)O)N(C)C(=O)[C@@H](NC(=O)[C@H](Cc2cnc[nH]2)NC(=O)[C@@H](NC(=O)[C@H](CC(N)=O)NC(=O)[C@H]2CCCN2C(=O)[C@H](CCCCN)NC(=O)[C@H](CO)NC(=O)[C@H](CCC(N)=O)NC(=O)[C@H](Cc2ccccc2)NC(C)=O)C(C)C)C(C)C)C(N)=O)C1=O` (stereo not given in full) reads 46.5%; that for `CC(=O)N[C@@H](Cc1ccccc1)C(=O)N[C@@H](CCC(N)=O)C(=O)N[C@@H](CO)C(=O)N[C@@H](CCCCN)C(=O)N1CCC[C@@H]1C(=O)N[C@@H](CC(N)=O)C(=O)N[C@H](C(=O)N[C@@H](Cc1cnc[nH]1)C(=O)N[C@H](C(=O)N1CCC[C@H]1C(=O)NCC(=O)N[C@@H](Cc1ccc(O)cc1)C(=O)N[C@@H](Cc1ccccc1)C(=O)N[C@@H](CCC(=O)O)C(=O)N[C@@H](CCCNC(=N)N)C(=O)N[C@@H](CC(C)C)C(=O)NC(C)(C)C(=O)N[C@@H](C)C(=O)N[C@@H](CCCCN)C(=O)N[C@@H](CC(C)C)C(N)=O)C(C)C)C(C)C`, 76.3%. Turning to `CC(C)C[C@H](NC(=O)[C@H](CCCCN)NC(=O)[C@H](C)NC(=O)C(C)(C)NC(=O)[C@H](CC(C)C)NC(=O)[C@H](CCCNC(=N)N)NC(=O)[C@H](CCC(=O)O)NC(=O)[C@H](Cc1ccccc1)NC(=O)[C@H](Cc1ccc(O)cc1)NC(=O)[C@@H](C)NC(=O)[C@H](CC(=O)O)NC(=O)[C@@H](NC(=O)[C@H](Cc1cnc[nH]1)NC(=O)[C@@H](NC(=O)[C@H](CC(N)=O)NC(=O)[C@H]1CCCN1C(=O)[C@H](CCCCN)NC(=O)[C@H](CO)NC(=O)[C@H](CCC(N)=O)NC(=O)[C@H](Cc1ccccc1)NC(=O)Cc1ccc2ccccc2c1)C(C)C)C(C)(C)C)C(N)=O`, the remaining at 24 h came to 108%. The result for `CC(=O)N[C@@H](Cc1ccccc1)C(=O)N[C@@H](CCC(N)=O)C(=O)N[C@@H](CO)C(=O)N[C@@H](CCCCN)C(=O)N(CC(=O)N[C@@H](CC(N)=O)C(=O)N[C@H](C(=O)N[C@@H](Cc1cnc[nH]1)C(=O)N[C@H](C(=O)N[C@@H](CC(=O)O)C(=O)NCC(=O)N[C@@H](Cc1ccc(O)cc1)C(=O)N[C@@H](Cc1ccccc1)C(=O)N[C@@H](CCC(=O)O)C(=O)N[C@@H](CCCNC(=N)N)C(=O)N[C@@H](CC(C)C)C(=O)NC(C)(C)C(=O)N[C@@H](C)C(=O)N[C@@H](CCCCN)C(=O)N[C@@H](CC(C)C)C(N)=O)C(C)C)C(C)C)C1CCCCC1` reads 17.4%.
